“And” between values parts separate entries of the source, which are not always exact repeats. Identical values can stand only once. Toxic doses and inconclusive results are not listed. The calls were made as follows: active = survival T/C of 150% or more; inactive = T/C below 125% in these data.
Tested on: BDF1 mice, B16 melanoma ip, median survival T/C
Assay: NCI In Vivo Anticancer Drug Screen. Data for tumor model B16 Melanoma (intraperitoneal) in B6D2F1 (BDF1) mice
Conditions: endpoint: median survival time, higher = longer survival
Procedure: The antitumor activity of compounds was measured in mice bearing transplantable tumors. Survival or tumor size were measured and the results are expressed as the measurement made in the treated group (T) divided by the measurement made in the vehicle treated control group (C). The tumor model used in this assay is B16 Melanoma (intraperitoneal) in B6D2F1 (BDF1) mice

[1] = dose: 50.0 mg/kg/injection, schedule: Q01DX009 (ip), vehicle: Klucel (hydroxypropylcellulose) (HPC)
[2] = dose: 100.0 mg/kg/injection, schedule: Q01DX009 (ip), vehicle: Klucel (hydroxypropylcellulose) (HPC)
[3] = dose: 3.13 mg/kg/injection, schedule: Q01DX009 (ip), vehicle: saline with Tween-80
[4] = dose: 6.25 mg/kg/injection, schedule: Q01DX009 (ip), vehicle: saline with Tween-80
[5] = dose: 12.5 mg/kg/injection, schedule: Q01DX009 (ip), vehicle: saline with Tween-80
[6] = dose: 25.0 mg/kg/injection, schedule: Q01DX009 (ip), vehicle: saline with Tween-80
[7] = dose: 50.0 mg/kg/injection, schedule: Q01DX009 (ip), vehicle: saline with Tween-80
[8] = dose: 100.0 mg/kg/injection, schedule: Q01DX009 (ip), vehicle: saline with Tween-80
[9] = dose: 200.0 mg/kg/injection, schedule: Q01DX009 (ip), vehicle: saline with Tween-80
[10] = dose: 200.0 mg/kg/injection, schedule: Q01DX009 (ip), vehicle: Klucel (hydroxypropylcellulose) (HPC)
[11] = dose: 100.0 mg/kg/injection, schedule: Q04DX003 (ip), vehicle: saline with Tween-80

Measured: T/C

N#CC(=C1C=CC(=NO)C=C1)c1ccccc1
inactive: dose: 12.5 mg/kg/injection, schedule: Q01DX009 (ip), vehicle: Klucel (hydroxypropylcellulose) (HPC) 100 % of control | [1] 112 % of control | [2] 103 % of control

COc1cccc(C(=O)c2ccncc2C)c1OC
inactive: dose: 25.0 mg/kg/injection, schedule: Q01DX009 (ip), vehicle: water 98 % of control | dose: 50.0 mg/kg/injection, schedule: Q01DX009 (ip), vehicle: water 96 % of control | dose: 100.0 mg/kg/injection, schedule: Q01DX009 (ip), vehicle: water 96 % of control

CCCCCCCCCCCCCC(C)NCc1ccccc1 (stereo not given)
inactive: [3] 100 % of control | [4] 100 % of control | [5] 100 % of control

O=S(=O)(c1ccccc1)N1CN2CCN(C2)C1
inactive: [5] 89 % of control | [6] 98 % of control | [7] 99 % of control | [8] 100 % of control | [9] 103 % of control

OCCN1CCN(CCCN2c3ccccc3Sc3ccc(C(F)(F)F)cc32)CC1
inactive: dose: 0.04 mg/kg/injection, schedule: Q01DX009 (ip), vehicle: saline 91 % of control | dose: 0.09 mg/kg/injection, schedule: Q01DX009 (ip), vehicle: saline 90 % of control and 106 % of control | dose: 0.19 mg/kg/injection, schedule: Q01DX009 (ip), vehicle: saline 102 % of control and 93 % of control | dose: 0.39 mg/kg/injection, schedule: Q01DX009 (ip), vehicle: saline 103 % of control and 109 % of control | dose: 0.78 mg/kg/injection, schedule: Q01DX009 (ip), vehicle: saline 99 % of control and 91 % of control | dose: 1.56 mg/kg/injection, schedule: Q01DX009 (ip), vehicle: saline 97 % of control

ClCc1c2ccccc2c(CCl)c2ccccc12
inactive: dose: 0.75 mg/kg/injection, schedule: Q01DX009 (ip), vehicle: Klucel (hydroxypropylcellulose) (HPC) 114 % of control | dose: 1.5 mg/kg/injection, schedule: Q01DX009 (ip), vehicle: Klucel (hydroxypropylcellulose) (HPC) 119 % of control

COC1C(O)CC(OC2CC(OC3CC(O[C@@H]4C(=O)c5c(cc6cc(OC7CC(OC8CC(O)C(O)C(C)O8)C(O)C(C)O7)c(C)c(O)c6c5O)C[C@H]4[C@H](OC)C(=O)[C@@H](O)[C@@H](C)O)OC(C)C3O)OC(C)C2O)OC1C (stereo not given in full)
inactive: dose: 188.0 micrograms/kg/injection, schedule: Q01DX009 (ip), vehicle: water 106 % of control | dose: 375.0 micrograms/kg/injection, schedule: Q01DX009 (ip), vehicle: water 105 % of control | dose: 750.0 micrograms/kg/injection, schedule: Q01DX009 (ip), vehicle: water 121 % of control

CCOC(=O)c1ccc(OC(=O)Nc2ccccc2OC)cc1
inactive: [8] 95 % of control | [9] 88 % of control

CC(=O)NC1CC2c3ccccc3C1([N+](=O)[O-])c1ccccc12 (stereo not given)
inactive: [2] 100 % of control | [10] 94 % of control | dose: 400.0 mg/kg/injection, schedule: Q01DX009 (ip), vehicle: Klucel (hydroxypropylcellulose) (HPC) 91 % of control

CCC(=O)c1ccc2c(c1)N(CCCN(C)C)c1ccccc1S2
inactive: dose: 3.12 mg/kg/injection, schedule: Q01DX009 (ip), vehicle: saline with Tween-80 96 % of control | [4] 86 % of control | [5] 96 % of control

O=C(C=P(c1ccccc1)(c1ccccc1)c1ccccc1)c1ccccc1
inactive: [11] 102 % of control | dose: 200.0 mg/kg/injection, schedule: Q04DX003 (ip), vehicle: saline with Tween-80 102 % of control | dose: 400.0 mg/kg/injection, schedule: Q04DX003 (ip), vehicle: saline with Tween-80 102 % of control

COc1ccccc1NC(=O)c1ccccc1
inactive: [8] 97 % of control | [9] 107 % of control | dose: 400.0 mg/kg/injection, schedule: Q01DX009 (ip), vehicle: saline with Tween-80 97 % of control

CCNc1nc(NC(C)C)nc(OC)n1
inactive: [4] 113 % of control | [5] 108 % of control | [6] 110 % of control

C(=NCCN1CCOCC1)=NC1CCCCC1
inactive: [3] 108 % of control | [4] 110 % of control | [5] 114 % of control

CC[C@@H]1O[C@@H]([C@@H]2CC[C@](O)([C@]3(C)CC[C@@H]([C@@H](C)[C@@]4(O)CC[C@H](C)[C@@H](C[C@@]5(O)O[C@@H]([C@@H](C)[C@H](O)C[C@H]6CC[C@H](C)[C@@H]([C@@H](C)C(=O)O)O6)CC[C@@H]5C)O4)O3)O2)CC[C@@]1(C)O
inactive: dose: 0.12 mg/kg/injection, schedule: Q01DX009 (ip), vehicle: saline 91 % of control | dose: 0.25 mg/kg/injection, schedule: Q01DX009 (ip), vehicle: saline 89 % of control | dose: 0.5 mg/kg/injection, schedule: Q01DX009 (ip), vehicle: saline 96 % of control

Cn1c(C[N+](C)(C)C)cc2ccccc21
inactive: [6] 97 % of control | [7] 94 % of control | [8] 86 % of control

CCCCCCCCCCCCCC(=O)CC
inactive: dose: 9.4 mg/kg/injection, schedule: Q01DX009 (ip), vehicle: saline with Tween-80 95 % of control | dose: 18.75 mg/kg/injection, schedule: Q01DX009 (ip), vehicle: saline with Tween-80 87 % of control

COc1cc2c(c(O)c1OC)-c1c(cc(OC)c(OC)c1OC)CC(C)C(C)C2 (stereo not given)
inactive: dose: 11.25 mg/kg/injection, schedule: Q01DX009 (ip), vehicle: saline + Tween-80 + alcohol 101 % of control | dose: 22.5 mg/kg/injection, schedule: Q01DX009 (ip), vehicle: saline + Tween-80 + alcohol 105 % of control | dose: 45.0 mg/kg/injection, schedule: Q01DX009 (ip), vehicle: saline + Tween-80 + alcohol 97 % of control | dose: 90.0 mg/kg/injection, schedule: Q01DX009 (ip), vehicle: saline + Tween-80 + alcohol 106 % of control

COc1ccc(CC2C(=O)NC(C)C(=O)N(C)C3Cc4ccc(cc4)Oc4cc(ccc4O)CC(C(=O)NC(C)C(=O)NC(C)C(=O)N2C)N(C)C3=O)cc1 (stereo not given)
inactive: dose: 0.25 mg/kg/injection, schedule: Q01DX009 (ip), vehicle: saline with Tween-80 117 % of control | dose: 0.5 mg/kg/injection, schedule: Q01DX009 (ip), vehicle: saline with Tween-80 122 % of control
active: dose: 2.0 mg/kg/injection, schedule: Q01DX009 (ip), vehicle: saline with Tween-80 152 % of control | dose: 4.0 mg/kg/injection, schedule: Q01DX009 (ip), vehicle: saline with Tween-80 175 % of control | dose: 8.0 mg/kg/injection, schedule: Q01DX009 (ip), vehicle: saline with Tween-80 154 % of control

O=C(O)CCN1C(=O)c2ccccc2C1=O
inactive: [7] 102 % of control | [8] 95 % of control | [9] 90 % of control

O=C1OCC(O)C(O)C(O)C(O)C1O (stereo not given)
inactive: dose: 100.0 mg/kg/injection, schedule: Q01DX009 (ip), vehicle: saline 113 % of control | dose: 200.0 mg/kg/injection, schedule: Q01DX009 (ip), vehicle: saline 106 % of control | dose: 400.0 mg/kg/injection, schedule: Q01DX009 (ip), vehicle: saline 120 % of control

C1=CC2C=CC12 (stereo not given)
inactive: dose: 50.0 mg/kg/injection, schedule: Q04DX003 (ip), vehicle: saline with Tween-80 91 % of control | [11] 89 % of control

O=C(c1ccccc1)C1NC1c1ccccc1 (stereo not given)
inactive: dose: 20.0 mg/kg/injection, schedule: Q01DX009 (ip), vehicle: Klucel (hydroxypropylcellulose) (HPC) 100 % of control | dose: 40.0 mg/kg/injection, schedule: Q01DX009 (ip), vehicle: Klucel (hydroxypropylcellulose) (HPC) 97 % of control | dose: 80.0 mg/kg/injection, schedule: Q01DX009 (ip), vehicle: Klucel (hydroxypropylcellulose) (HPC) 94 % of control

O=C1NNC(=O)NN1
inactive: [2] 118 % of control | [10] 106 % of control

O=C1c2ccccc2C(=O)N1CC[P+](c1ccccc1)(c1ccccc1)c1ccccc1
inactive: dose: 1.56 mg/kg/injection, schedule: Q01DX009 (ip), vehicle: water 98 % of control | dose: 3.13 mg/kg/injection, schedule: Q01DX009 (ip), vehicle: water 100 % of control | dose: 6.25 mg/kg/injection, schedule: Q01DX009 (ip), vehicle: water 109 % of control | dose: 12.5 mg/kg/injection, schedule: Q01DX009 (ip), vehicle: water 107 % of control

O=C1CC(CO)CN1CCc1ccccc1 (stereo not given)
inactive: dose: 100.0 mg/kg/injection, schedule: Q04DX003 (ip), vehicle: Klucel (hydroxypropylcellulose) (HPC) 110 % of control | dose: 200.0 mg/kg/injection, schedule: Q04DX003 (ip), vehicle: Klucel (hydroxypropylcellulose) (HPC) 107 % of control | dose: 400.0 mg/kg/injection, schedule: Q04DX003 (ip), vehicle: Klucel (hydroxypropylcellulose) (HPC) 102 % of control

O=C1CCC2(CCC(=O)c3ccccc32)C(=O)N1 (stereo not given)
inactive: [1] 119 % of control | [2] 114 % of control | [10] 116 % of control

From PubChem BioAssay AID192 (DTP/NCI, 2004)
